Experimental data from ChEMBL document CHEMBL5346971, “Discovery of the First Irreversible HDAC6 Isoform Selective Inhibitor with Potent Anti-Multiple Myeloma Activity” (J Med Chem, 2023).
Active and inactive are the calls of the source. No cut-off for these calls is given here.

How the values were obtained:
Histone deacetylase 11 = molecular target: T1, Histone deacetylase 11 (Homo sapiens, UniProt Q96DB2); assay: Inhibition of human full length recombinant HDAC11 (1 to 347 residues) expressed in Sf9 cells using acetyl-ETDKmyr-AMC as substrate preincubated with enzyme for 1 hr followed by substrate addition and measured after 30 mins by fluorescence based analysis
T1 sequence (Q96DB2 whole entry): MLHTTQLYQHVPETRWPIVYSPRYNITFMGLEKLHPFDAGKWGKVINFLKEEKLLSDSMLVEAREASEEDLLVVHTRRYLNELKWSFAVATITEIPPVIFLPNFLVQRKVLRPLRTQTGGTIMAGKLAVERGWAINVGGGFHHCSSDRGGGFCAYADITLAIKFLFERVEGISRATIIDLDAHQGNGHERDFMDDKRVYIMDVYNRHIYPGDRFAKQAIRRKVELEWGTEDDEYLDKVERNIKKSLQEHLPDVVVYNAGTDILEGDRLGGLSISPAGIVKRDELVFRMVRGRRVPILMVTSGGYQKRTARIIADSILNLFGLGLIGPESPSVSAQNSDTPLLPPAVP

RPMI-8226 [1] = assay: Antitumor activity against human RPMI-8226 cells xenografted in NCG mouse assessed as T/C ratio at 10 ug administered intratumorally every 2 days by vernier caliper analysis; type: functional; conditions: dose 10 µg; route it(Intratumoral)
RPMI-8226 [2] = assay: Antitumor activity against human RPMI-8226 cells xenografted in NCG mouse assessed as tumor growth inhibition at 10 ug administered intratumorally every 2 days by vernier caliper analysis; type: functional; conditions: dose 10 µg; route it(Intratumoral)
[3] = Effect on HDAC6 protein expression in human A549 cells assessed as change in HDAC6 protein expression at 0.4 uM incubated for 5 hrs followed by drug wash-out for 1 hr by western blot analysis relative to control; type: functional
RPMI-8226 [4] = assay: Induction of apoptosis in human RPMI-8226 cells assessed as proportion of early apoptotic cells at 0.5 uM incubated for 24 hrs by AnnexinV-FITC/PI staining based flow cytometry (reference value: 10.63%); type: functional, cell-based
[5] = molecular target: T2, Polyamine deacetylase HDAC10 (Homo sapiens, UniProt Q969S8); assay: Inhibition of N-terminal FLAG-tagged human recombinant HDAC10 (2 to 631 residues) expressed in baculovirus-infected Sf9 cells using Acetyl-Arg-His-Lys(acety1)-Lys-(acety1)-AMC as substrate peincubated with enzyme for 1 hr followed by substrate addition and measured after 30 mins by fluorescence based analysis
T2 sequence (Q969S8 whole entry): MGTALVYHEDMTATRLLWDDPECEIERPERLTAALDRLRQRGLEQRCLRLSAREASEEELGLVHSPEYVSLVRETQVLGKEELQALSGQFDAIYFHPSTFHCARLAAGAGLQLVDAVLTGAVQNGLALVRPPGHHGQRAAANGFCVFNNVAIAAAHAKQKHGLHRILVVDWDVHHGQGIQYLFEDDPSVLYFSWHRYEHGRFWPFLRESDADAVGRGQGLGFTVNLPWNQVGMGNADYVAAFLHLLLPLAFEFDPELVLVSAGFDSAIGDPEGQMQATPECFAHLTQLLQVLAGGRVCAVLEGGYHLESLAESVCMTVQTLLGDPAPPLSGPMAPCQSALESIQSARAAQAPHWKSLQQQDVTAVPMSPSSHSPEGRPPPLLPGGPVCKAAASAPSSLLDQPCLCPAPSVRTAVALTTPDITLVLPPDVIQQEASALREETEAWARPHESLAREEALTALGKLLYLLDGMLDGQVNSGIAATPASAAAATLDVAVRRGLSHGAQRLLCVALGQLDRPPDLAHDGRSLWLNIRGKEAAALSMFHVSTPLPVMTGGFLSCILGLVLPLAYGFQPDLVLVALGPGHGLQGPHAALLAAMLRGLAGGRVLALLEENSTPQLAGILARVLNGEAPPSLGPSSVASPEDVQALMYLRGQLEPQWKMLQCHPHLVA

Histone deacetylase 8 = molecular target: T3, Histone deacetylase 8 (Homo sapiens, UniProt Q9BY41); assay: Inhibition of C-terminal His-tagged human full length recombinant HDAC8 (1 to 377 residues) expressed in Sf9 cells using Boc-Lys(trifluoroacety1)-AMC as substrate preincubated with enzyme for 1 hr followed by substrate addition and measured after 30 mins by fluorescence based analysis
T3 sequence (Q9BY41 whole entry): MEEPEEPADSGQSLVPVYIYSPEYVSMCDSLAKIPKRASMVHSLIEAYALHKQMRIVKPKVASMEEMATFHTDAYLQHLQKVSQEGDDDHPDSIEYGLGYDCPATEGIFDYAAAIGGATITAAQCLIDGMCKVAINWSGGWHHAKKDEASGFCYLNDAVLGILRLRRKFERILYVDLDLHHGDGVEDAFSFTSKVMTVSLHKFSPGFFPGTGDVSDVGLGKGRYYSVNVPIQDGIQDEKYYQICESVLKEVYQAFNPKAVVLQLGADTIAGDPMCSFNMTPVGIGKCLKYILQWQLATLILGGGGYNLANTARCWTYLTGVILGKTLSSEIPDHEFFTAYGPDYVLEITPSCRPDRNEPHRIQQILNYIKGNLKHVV

IC50 (Histone deacetylase 11): 5300 nM | IC50 [5]: 1800 nM | IC50 (Histone deacetylase 8): 2100 nM
SMILES: O=C(NO)c1ccc(COc2no[n+]([O-])c2S(=O)(=O)c2ccccc2)cc1
T/C (RPMI-8226 [1]): 55% | TGI (RPMI-8226 [2]): 48% | fold change (FC) [3]: 1.2 | Activity (RPMI-8226 [4]): Active
